Experimental findings from ChEMBL document CHEMBL3301361, “Experimental in vitro DMPK and physicochemical data on a set of publicly disclosed compounds” are described below.

In brackets after ≈: the same amount, converted by molar mass.

A short description of this series: physchem. The note with it: pH 7.4 buffer.
The term thermodynamic solubility denotes the concentration in solution at equilibrium with solid. The compound `Cn1cnc(-c2cccc(NC(=O)Nc3cc(C(F)(F)F)ccc3F)c2)c1-c1cc2c(N)ncnc2s1` showed a solubility (thermodynamic) of 0.5 µM (≈ 0.264 µg/mL). To `O=C(c1ccc(F)cc1)C1CCN(C(=O)c2ccc(Cl)c(Cl)c2)CC1` belongs 0.8 µM (≈ 0.304 µg/mL); to `CC(C)(C)Cn1c2ccccc2c2cc(NC(=O)N3CCOCC3)ccc21`, 0.1 µM (≈ 0.0365 µg/mL). For `CC(=O)N1CCC(n2cc(-c3cnc(N)c(-c4nc5ccccc5o4)c3)cn2)CC1` the value was 1.7 µM (≈ 0.684 µg/mL); for `CN(c1ccnc(Nc2cc(N3CCOCC3)nc(N3CCOCC3)c2)n1)c1cccc2[nH]ncc12`, 0.8 µM (≈ 0.39 µg/mL); for `O=C(Cc1ccccc1)Nc1ccc(N2CCCC2)cc1`, 1.1 µM (≈ 0.308 µg/mL). `Cc1ccnc(NC(c2ccccn2)c2c(C)[nH]c3ccccc23)c1` (centres undefined) registered a solubility (thermodynamic) of 1.4 µM (≈ 0.46 µg/mL).

As to `Cc1ccccc1Oc1cc(-n2ncc(Cl)c(Cl)c2=O)ncn1`, the thermodynamic solubility turned out to be 1 µM (≈ 0.349 µg/mL). For `Clc1ccc2c(c1)Nc1ccccc1S2` the value was 0.7 µM (≈ 0.164 µg/mL); for `Cc1ccc(Nc2nc(C)nc3c2oc2ccccc23)cc1`, 0.5 µM (≈ 0.145 µg/mL). To `O=S(=O)(c1ccc(F)cc1)N1CCCN(c2nccc(C(F)(F)F)n2)CC1` belongs 0.9 µM (≈ 0.364 µg/mL); to `CCOc1ccc(NCC(=O)c2ccc(C)cc2)cc1`, 1.2 µM (≈ 0.323 µg/mL); to `COCCOc1cc2nncc(Nc3cc(O)c(Cl)cc3F)c2cc1OC`, 0.1 µM (≈ 0.0394 µg/mL). To `COc1ccc(N(C)C(=O)c2ccc3nc(-c4ccccc4)c(-c4ccccc4)nc3c2)cc1` belongs 0.7 µM (≈ 0.312 µg/mL). Turning to `O=C(Cc1ccc2ccccc2c1)Nc1cc(-c2ccc(Cl)cc2)n[nH]1`, the solubility (thermodynamic) stood at 0.5 µM (≈ 0.181 µg/mL). For `C#CCN(Cc1ccc2nc(CO)[nH]c(=O)c2c1)c1ccc(C(=O)NCc2cccc([N+](=O)[O-])c2)cc1` the value was 0.4 µM (≈ 0.199 µg/mL). To `O=S(=O)(CC(c1ccccc1)N1CCCCC1)c1ccc(Cl)cc1` (centres undefined) belongs 0.9 µM (≈ 0.328 µg/mL); to `COC[C@H](C)Oc1cc(Oc2ccc(OC)cc2)cc(C(=O)Nc2ccc(C(=O)O)cn2)c1`, 1510 µM (≈ 685 µg/mL); to `COC[C@H](C)Oc1cc(Oc2cccc(F)c2)cc(C(=O)Nc2ccc(C(=O)O)cn2)c1`, 1380 µM (≈ 608 µg/mL). Take `COC[C@H](C)Oc1cc(Oc2cccc(N(C)C)c2)cc(C(=O)Nc2ccc(C(=O)O)cn2)c1`: the solubility (thermodynamic) amounted to 1350 µM (≈ 628 µg/mL). For `CC(C)Cc1nc(-c2ccccc2)c(-c2ccc(CN3CCC(n4c(=O)[nH]c5ccccc54)CC3)cc2)nc1O` the value was 1.6 µM (≈ 0.854 µg/mL); for `COc1cc(OC2CN(C(C)=O)C2)ccc1Nc1ncc(Cl)c(-c2cnc3ccccn23)n1`, 1.7 µM (≈ 0.79 µg/mL).

In turn, `COc1cc(N2CCN(C(=O)[C@H](C)O)CC2)ccc1Nc1ncc(Cl)c(-c2cnc3ccccn23)n1` displayed a solubility (thermodynamic) of 1.5 µM (≈ 0.762 µg/mL). To `COc1cc(N2CCN(C(C)=O)CC2)ccc1Nc1ncc(Cl)c(-c2cnc3ccc(F)cn23)n1` belongs 1.3 µM (≈ 0.645 µg/mL). For `O=C(CNC(=O)c1ccc(Cl)cc1)c1ccc(Br)cc1` the value was 0.5 µM (≈ 0.176 µg/mL). For `Clc1cccc(CNc2[nH]nc3cccc(Oc4ccccc4)c23)c1` the value was 1.3 µM (≈ 0.455 µg/mL). In the case of `COc1cc2ncnc(Oc3ccc(CC(=O)Nc4ccc(N(C)C)cn4)cc3)c2cc1OC`, the thermodynamic solubility was determined as 1.6 µM (≈ 0.735 µg/mL). Regarding `CCN(C(=O)Cc1ccc(S(C)(=O)=O)cc1)C1CCN(CCC(c2ccccc2)C2CCN(C(C)=O)CC2)CC1` (centres undefined), the thermodynamic solubility turned out to be 1510 µM (≈ 859 µg/mL).

Compound `COCCOc1cc2ncnc(Nc3ncc(CC(=O)Nc4cccc(F)c4)s3)c2cc1OC` returned a solubility (thermodynamic) of 0.6 µM (≈ 0.29 µg/mL). `CCN(CCO)CCCOc1cc2ncnc(Nc3ncc(CC(=O)Nc4cccc(F)c4)s3)c2cc1OC` yielded a solubility (thermodynamic) of 0.6 µM (≈ 0.333 µg/mL). On to `CS(=O)(=O)Cc1cc(N2CC3CCC(C2)O3)nc(-c2ccc3[nH]ccc3c2)n1`, for which the thermodynamic solubility is 1.5 µM (≈ 0.598 µg/mL). For `CNc1cccc(CCOc2ccc(C[C@H](NC(=O)c3c(Cl)cncc3Cl)C(=O)O)cc2)n1` the value was 1350 µM (≈ 660 µg/mL); for `O=C(Nc1ccc(N2CCOCC2)nc1)c1nnc(Nc2ccc(Cl)cc2)o1`, 1 µM (≈ 0.401 µg/mL); for `CCCCOc1ccc(-c2cc(=O)c3ccccc3[nH]2)cc1`, 1.6 µM (≈ 0.469 µg/mL).

As to `COc1cc(OC2CCOCC2)c2c(Nc3ccc(F)c(Cl)c3)ncnc2c1`, the thermodynamic solubility was found to be 0.1 µM (≈ 0.0404 µg/mL). Turning to `COc1cc2ncnc(Nc3cccc(Cl)c3F)c2cc1CN(C(C)C)[C@@H](C)C(N)=O`, the thermodynamic solubility came to 1 µM (≈ 0.446 µg/mL). To `CC(C)(C)OC(=O)N1CCN(c2ccc(OCc3ccc(S(C)(=O)=O)cc3)cn2)CC1` belongs 1 µM (≈ 0.448 µg/mL); to `C[C@@H]1CN(c2ncc(OCc3ccc(S(C)(=O)=O)cc3)cn2)[C@@H](C)CN1C(=O)OC(C)(C)C`, 0.9 µM (≈ 0.429 µg/mL). `Cc1cc(CNc2ncc(Br)c(Nc3cc(CCc4ccccc4)[nH]n3)n2)on1` displayed a solubility (thermodynamic) of 1.7 µM (≈ 0.772 µg/mL). For `COc1ccccc1NC(=O)c1cc2ccccc2cc1O` the value was 0.9 µM (≈ 0.264 µg/mL); for `c1csc(-c2n[nH]c3c2Cc2ccccc2-3)c1`, 0.6 µM (≈ 0.143 µg/mL); for `CC(C)(C)CNCCn1c(Sc2nc3cccc(Cl)c3s2)nc2c(N)ncnc21`, 0.5 µM (≈ 0.224 µg/mL).

In turn, `N#CC1(NC(=O)[C@@H]2CCCC[C@H]2C(=O)N2CCc3[nH]c4ncccc4c3C2)CC1` gave a thermodynamic solubility of 1510 µM (≈ 593 µg/mL). For `CN(C)C(=O)[C@H](Cc1ccccc1)NC(=O)c1cc2cc(Br)sc2[nH]1` the value was 0.9 µM (≈ 0.378 µg/mL). On to `CN(C)C(=O)[C@H](Cc1ccccc1)NC(=O)c1cc2cc(Cl)sc2[nH]1`, for which the solubility (thermodynamic) turned out to be 1.5 µM (≈ 0.564 µg/mL). In the case of `CCN1C(=O)C(C)(C)c2cc3[nH]c4c(c3cc21)CCCc1c-4n[nH]c1C`, the solubility (thermodynamic) stood at 0.7 µM (≈ 0.244 µg/mL).

The compound `O=C(CC(c1ccccc1)S(=O)(=O)c1ccccc1)c1ccccc1` (centres undefined) showed a thermodynamic solubility of 1.1 µM (≈ 0.385 µg/mL).

`CC(C)CC(C(=O)NCC(=O)CNS(=O)(=O)c1ccccn1)c1cccc(-c2ccccc2)c1` (centres undefined) yielded a thermodynamic solubility of 1.2 µM (≈ 0.576 µg/mL). To `CS(=O)(=O)C1(c2cc(N3CCOCC3)nc(-c3cccc4[nH]ccc34)n2)CCOCC1` belongs 1.8 µM (≈ 0.797 µg/mL); to `CC(C)S(=O)(=O)C1(c2cc(N3CCOCC3)nc(-c3cccc4[nH]ccc34)n2)CC1`, 1.5 µM (≈ 0.64 µg/mL). To `c1ccc(NCc2ccc(CNc3ccccn3)cc2)nc1` belongs 0.9 µM (≈ 0.261 µg/mL); to `Nc1ccccc1NC(=O)c1ccc(-c2ncc(CN3CCC3)cc2Cl)cc1`, 1350 µM (≈ 530 µg/mL). To `CNC(=O)[C@@H](C)Oc1cccc2ncnc(Nc3ccc4c(cnn4Cc4nccs4)c3)c12` belongs 1.3 µM (≈ 0.597 µg/mL); to `C#CCN(Cc1cc2c(=O)[nH]c(C)nc2cc1C)c1ccc(C(=O)NCc2cccc([N+](=O)[O-])c2)c(F)c1`, 0.1 µM (≈ 0.0514 µg/mL). For the compound `O=C(NCc1ccc(C(=O)NO)cc1)OCc1cccnc1`, the thermodynamic solubility is 1380 µM (≈ 416 µg/mL).

Compound `COc1ccc(-c2[nH]nc3c2C(=O)c2ccccc2-3)cc1` registered a thermodynamic solubility of 0.3 µM (≈ 0.0829 µg/mL). For `Cc1cc(C)cc(-c2[nH]c3ccc(C(C)(C)C(=O)N4C5CCC4CC5)cc3c2CCN(C)CCCCc2ccncc2)c1` the value was 0.9 µM (≈ 0.519 µg/mL). To `COc1cc(OC)cc(-c2cc3cnc(N)nc3nc2NC(=O)NC(C)(C)C)c1` belongs 0.4 µM (≈ 0.159 µg/mL); to `COc1cc2c(Nc3ccc(Cc4ccccc4)cc3)c(C#N)cnc2cc1OCCCN1CCOCC1`, 0.6 µM (≈ 0.305 µg/mL); to `COCCNS(=O)(=O)c1ccc(Nc2nccc(-c3cnc4ccccn34)n2)cc1`, 0.7 µM (≈ 0.297 µg/mL).

`COc1cc2ncnc(Nc3ccc4c(ccn4Cc4ccccc4)c3)c2cc1OC`: the solubility (thermodynamic) is 0.6 µM (≈ 0.246 µg/mL). For `Cc1ccc(SCc2cc(=O)n(C)[nH]2)cc1` the value was 1510 µM (≈ 355 µg/mL). For `COc1cc2ncc(C#N)c(Nc3ccc(Oc4ccccc4)cc3)c2cc1OC` the value was 1.4 µM (≈ 0.556 µg/mL); for `CN(C)C(=O)[C@H](Cc1ccccc1)NC(=O)c1cc2cc(Br)ccc2[nH]1`, 1 µM (≈ 0.414 µg/mL); for `COc1cc2c(Nc3ccc(Cl)cc3F)ncnc2cc1OCCn1ccnn1`, 1.5 µM (≈ 0.622 µg/mL). `Cc1nc(-c2c(C)n(Cc3c(F)cccc3F)c(=O)n(C[C@H](N)c3ccccc3)c2=O)cs1` gave a thermodynamic solubility of 1510 µM (≈ 709 µg/mL). For `COc1cc2c(NC(=O)Nc3ccccc3Cl)ncnc2cc1OCC1CCN(C)CC1` the value was 0.3 µM (≈ 0.137 µg/mL). For `Cc1cc(C)cc(-c2[nH]c3sc(C(C)(C)C(=O)N4C5CCC4CC5)cc3c2[C@H](C)CNC(=O)N2CCC(c3ccncc3)CC2)c1` the value was 0.6 µM (≈ 0.383 µg/mL); for `Cc1cc(C)cc(-c2[nH]c3sc(C(C)(C)C(=O)N4C5CCC4CC5)cc3c2CN2CCN(CC(=O)N3CCCC3)CC2)c1`, 1.7 µM (≈ 1.02 µg/mL); for `CNC(=O)[C@@H](C)Oc1cccc2ncnc(Nc3ccc(OCc4ccccn4)c(Cl)c3)c12`, 1.6 µM (≈ 0.742 µg/mL). Compound `COc1cc2c(Nc3ccc(Oc4ccccc4)cc3)c(C#N)cnc2cc1OCCCN1CCOCC1` returned a solubility (thermodynamic) of 0.9 µM (≈ 0.46 µg/mL).

Turning to `C#CCN(Cc1ccc2nc(C)nc(O)c2c1)c1ccc(S(=O)(=O)c2ccccc2)cc1`, the solubility (thermodynamic) is 0.1 µM (≈ 0.0444 µg/mL). To `COc1cc2c(Nc3cnc(NC(=O)c4ccccc4)nc3)ncnc2cc1OC[C@@H](O)CN1CCCCC1` belongs 1510 µM (≈ 802 µg/mL). For `C[C@@H](Oc1cccc2ncnc(Nc3ccc4c(cnn4Cc4cccc(F)c4)c3)c12)C(=O)N1CCOCC1` the value was 0.3 µM (≈ 0.158 µg/mL); for `NC(=O)Nc1sc(-c2ccccc2)cc1C(=O)Nc1ccccc1`, 0.6 µM (≈ 0.202 µg/mL).

Consider `CS(=O)(=O)N1CC2(CCN(C(=O)Nc3cnc(-c4ccccc4)cn3)CC2)c2ccccc21`, for which the solubility (thermodynamic) came to 0.2 µM (≈ 0.0927 µg/mL). For `CS(=O)(=O)c1cccc(CNc2nc(Nc3ccc4c(c3)CCC(=O)N4)ncc2C(F)(F)F)c1`, the thermodynamic solubility was 0.5 µM (≈ 0.246 µg/mL). In turn, `NC(=O)Nc1sc(-c2ccccc2)cc1C(=O)NCc1ccccc1` came in with a thermodynamic solubility of 0.8 µM (≈ 0.281 µg/mL). To `COc1cc2c(Nc3ncc(CC(=O)Nc4ccccc4)s3)ncnc2cc1OCCCN1CCOCC1` belongs 0.4 µM (≈ 0.214 µg/mL); to `COc1cc(-c2cnc(N)c(-c3nc4ccccc4[nH]3)c2)cc(OC)c1OC`, 0.5 µM (≈ 0.188 µg/mL).

`NC(=O)c1ccccc1NC(=O)Nc1ccc(Cl)c(Cl)c1` registered a solubility (thermodynamic) of 1.5 µM (≈ 0.486 µg/mL). In turn, `CC#CC(=O)Nc1ccc2ncnc(Nc3cccc(Br)c3)c2c1` returned a solubility (thermodynamic) of 0.8 µM (≈ 0.305 µg/mL). For `c1ccc(-c2cnn3cc(-c4ccncc4)cnc23)cc1` the value was 0.9 µM (≈ 0.245 µg/mL); for `COc1cc2ncnc(Nc3ccc(Oc4ccccc4)cc3)c2cc1OC`, 0.3 µM (≈ 0.112 µg/mL).
